# Experimental data published in ChEMBL document CHEMBL1146654, “3-(7-Azaindolyl)-4-arylmaleimides as potent, selective inhibitors of glycogen synthase kinase-3” (Bioorg Med Chem Lett, 2004).
# Tests used:
# Parameters in all cases: scale not given: the % may be the effect or the level left
# [1] = biological target: T1, Calcium/calmodulin-dependent protein kinase type IV (Homo sapiens) (UniProt Q16566); assay: Inhibition of Calcium/calmodulin-dependent protein kinase type IV
# T1 sequence (whole entry): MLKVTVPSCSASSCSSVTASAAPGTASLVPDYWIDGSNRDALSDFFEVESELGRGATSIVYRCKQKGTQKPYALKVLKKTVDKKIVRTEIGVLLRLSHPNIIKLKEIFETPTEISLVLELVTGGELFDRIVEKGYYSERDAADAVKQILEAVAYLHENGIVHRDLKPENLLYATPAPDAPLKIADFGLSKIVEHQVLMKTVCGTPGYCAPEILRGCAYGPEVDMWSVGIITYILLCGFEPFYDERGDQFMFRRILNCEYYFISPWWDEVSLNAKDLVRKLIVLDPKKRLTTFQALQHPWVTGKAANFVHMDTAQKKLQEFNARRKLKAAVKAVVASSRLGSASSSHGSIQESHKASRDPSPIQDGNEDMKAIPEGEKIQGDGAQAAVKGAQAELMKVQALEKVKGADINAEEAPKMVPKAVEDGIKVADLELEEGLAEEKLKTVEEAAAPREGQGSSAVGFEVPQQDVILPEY
# [2] = biological target: T2, Mitogen-activated protein kinase 12 (Homo sapiens) (UniProt P53778); assay: Inhibition of Stress activated protein kinase 3
# T2 sequence (whole entry): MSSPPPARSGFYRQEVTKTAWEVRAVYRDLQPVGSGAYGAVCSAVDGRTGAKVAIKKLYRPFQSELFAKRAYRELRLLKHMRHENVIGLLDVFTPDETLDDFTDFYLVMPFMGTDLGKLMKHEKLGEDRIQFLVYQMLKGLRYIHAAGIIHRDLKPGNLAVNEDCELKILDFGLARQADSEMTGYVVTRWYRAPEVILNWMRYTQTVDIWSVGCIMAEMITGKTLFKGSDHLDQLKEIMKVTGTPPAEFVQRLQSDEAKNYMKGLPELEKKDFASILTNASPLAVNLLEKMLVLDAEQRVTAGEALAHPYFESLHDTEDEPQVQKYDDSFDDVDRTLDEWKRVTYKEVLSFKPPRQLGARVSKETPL
# [3] = biological target: Serine/threonine-protein kinase N2 (Homo sapiens) (UniProt Q16513); assay: Inhibition of compound PRK2
# Sequence of Serine/threonine-protein kinase N2 (Homo sapiens) (Q16513 whole entry, looked up): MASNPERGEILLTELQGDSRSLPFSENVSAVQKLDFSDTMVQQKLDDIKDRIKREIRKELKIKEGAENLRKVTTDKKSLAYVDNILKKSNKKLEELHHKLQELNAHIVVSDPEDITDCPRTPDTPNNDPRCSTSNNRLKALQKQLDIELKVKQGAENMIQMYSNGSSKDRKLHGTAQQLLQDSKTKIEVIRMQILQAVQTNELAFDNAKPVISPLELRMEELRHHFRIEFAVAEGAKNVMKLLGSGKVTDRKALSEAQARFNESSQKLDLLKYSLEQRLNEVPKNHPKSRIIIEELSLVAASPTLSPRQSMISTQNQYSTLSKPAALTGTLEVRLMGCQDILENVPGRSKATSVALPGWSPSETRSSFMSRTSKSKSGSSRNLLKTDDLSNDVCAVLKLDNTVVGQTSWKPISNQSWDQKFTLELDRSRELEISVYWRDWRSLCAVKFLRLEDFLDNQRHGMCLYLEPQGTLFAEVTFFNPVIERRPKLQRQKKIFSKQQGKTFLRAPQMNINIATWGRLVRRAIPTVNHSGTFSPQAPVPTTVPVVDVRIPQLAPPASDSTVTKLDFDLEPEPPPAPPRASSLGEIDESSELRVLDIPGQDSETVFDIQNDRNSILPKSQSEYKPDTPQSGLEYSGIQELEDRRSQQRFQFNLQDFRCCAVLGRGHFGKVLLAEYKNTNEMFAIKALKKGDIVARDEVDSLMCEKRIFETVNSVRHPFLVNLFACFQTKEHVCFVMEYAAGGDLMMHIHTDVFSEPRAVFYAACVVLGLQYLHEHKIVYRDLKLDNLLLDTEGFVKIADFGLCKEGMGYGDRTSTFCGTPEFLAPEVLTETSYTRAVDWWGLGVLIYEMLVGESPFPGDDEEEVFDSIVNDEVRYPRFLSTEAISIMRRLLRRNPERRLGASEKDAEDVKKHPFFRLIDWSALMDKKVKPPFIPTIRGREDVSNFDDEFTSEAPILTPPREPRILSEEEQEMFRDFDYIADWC
# [4] = biological target: Serine/threonine-protein kinase PAK 2 (Homo sapiens) (UniProt Q13177); assay: Inhibition of PAK2
# [5] = biological target: T3, Dual specificity mitogen-activated protein kinase kinase 6 (Homo sapiens) (UniProt P52564); assay: Inhibition of Mitogen activated protein kinase kinase 6
# T3 sequence (whole entry): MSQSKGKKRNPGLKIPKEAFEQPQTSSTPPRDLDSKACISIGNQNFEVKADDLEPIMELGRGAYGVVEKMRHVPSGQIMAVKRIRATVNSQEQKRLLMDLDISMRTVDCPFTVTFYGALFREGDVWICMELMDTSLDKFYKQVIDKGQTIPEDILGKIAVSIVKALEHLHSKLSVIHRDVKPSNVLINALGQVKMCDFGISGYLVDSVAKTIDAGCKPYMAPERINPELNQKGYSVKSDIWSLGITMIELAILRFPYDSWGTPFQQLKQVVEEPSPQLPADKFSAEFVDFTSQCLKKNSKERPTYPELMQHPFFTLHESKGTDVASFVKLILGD
# [6] = biological target: Tyrosine-protein kinase Blk (Mus musculus) (UniProt P16277); assay: Inhibition of B lymphoid tyrosine kinase
# Sequence of Tyrosine-protein kinase Blk (Mus musculus) (P16277 whole entry): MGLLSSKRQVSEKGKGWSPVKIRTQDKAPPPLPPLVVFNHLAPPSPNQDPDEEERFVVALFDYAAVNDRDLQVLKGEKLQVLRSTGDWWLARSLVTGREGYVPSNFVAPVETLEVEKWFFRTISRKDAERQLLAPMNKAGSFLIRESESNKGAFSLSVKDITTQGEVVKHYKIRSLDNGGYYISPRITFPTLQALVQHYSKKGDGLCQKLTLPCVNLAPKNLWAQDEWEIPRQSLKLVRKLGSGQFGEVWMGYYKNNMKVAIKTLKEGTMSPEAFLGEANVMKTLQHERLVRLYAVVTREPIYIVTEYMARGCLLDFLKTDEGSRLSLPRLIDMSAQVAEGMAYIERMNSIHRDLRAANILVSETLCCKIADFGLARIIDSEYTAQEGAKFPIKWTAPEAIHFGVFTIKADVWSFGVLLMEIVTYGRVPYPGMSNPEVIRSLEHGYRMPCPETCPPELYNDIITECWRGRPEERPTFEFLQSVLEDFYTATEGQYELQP
# [7] = biological target: Tyrosine-protein kinase Fyn (Homo sapiens) (UniProt P06241); assay: Inhibition of Fyn protein kinase
# [8] = biological target: T4, Dual specificity mitogen-activated protein kinase kinase 7 (Homo sapiens) (UniProt O14733); assay: Inhibition of Mitogen activated protein kinase kinase 7 beta
# T4 sequence (whole entry): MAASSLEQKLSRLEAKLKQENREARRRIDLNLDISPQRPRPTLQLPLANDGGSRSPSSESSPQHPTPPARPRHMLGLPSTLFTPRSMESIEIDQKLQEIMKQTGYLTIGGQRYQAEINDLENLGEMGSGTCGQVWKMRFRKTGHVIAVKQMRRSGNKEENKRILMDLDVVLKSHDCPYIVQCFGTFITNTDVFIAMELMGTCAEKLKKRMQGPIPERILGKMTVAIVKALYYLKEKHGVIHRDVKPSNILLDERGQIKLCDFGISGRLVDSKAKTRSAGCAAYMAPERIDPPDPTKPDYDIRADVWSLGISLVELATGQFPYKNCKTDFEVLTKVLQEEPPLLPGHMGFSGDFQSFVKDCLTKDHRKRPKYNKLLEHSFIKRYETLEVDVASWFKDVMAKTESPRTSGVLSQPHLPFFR
# [9] = biological target: T5, Inhibitor of nuclear factor kappa-B kinase subunit beta (Homo sapiens) (UniProt O14920); assay: Inhibition of I-kappa-B-kinase beta
# T5 sequence (whole entry): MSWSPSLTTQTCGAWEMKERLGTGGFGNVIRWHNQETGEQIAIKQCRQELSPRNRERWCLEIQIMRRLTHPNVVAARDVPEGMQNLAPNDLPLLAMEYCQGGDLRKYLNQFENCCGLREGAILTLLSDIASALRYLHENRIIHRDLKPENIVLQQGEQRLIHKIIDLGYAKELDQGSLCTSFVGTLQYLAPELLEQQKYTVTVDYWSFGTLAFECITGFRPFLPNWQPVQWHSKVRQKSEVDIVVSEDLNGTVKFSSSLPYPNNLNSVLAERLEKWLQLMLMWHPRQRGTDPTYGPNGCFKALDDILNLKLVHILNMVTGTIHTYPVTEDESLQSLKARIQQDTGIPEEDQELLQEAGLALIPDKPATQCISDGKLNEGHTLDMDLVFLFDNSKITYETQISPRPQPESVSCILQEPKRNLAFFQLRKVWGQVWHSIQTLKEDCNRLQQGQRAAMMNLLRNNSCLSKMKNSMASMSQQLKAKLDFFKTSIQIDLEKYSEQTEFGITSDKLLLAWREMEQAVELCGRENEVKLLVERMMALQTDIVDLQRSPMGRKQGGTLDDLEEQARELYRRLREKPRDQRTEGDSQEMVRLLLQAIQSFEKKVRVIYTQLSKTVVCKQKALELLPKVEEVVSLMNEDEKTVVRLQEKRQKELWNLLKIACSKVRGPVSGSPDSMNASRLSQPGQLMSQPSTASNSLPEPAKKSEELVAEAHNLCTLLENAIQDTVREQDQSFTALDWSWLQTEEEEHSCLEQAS
# [10] = biological target: Ribosomal protein S6 kinase alpha-3 (Homo sapiens, UniProt P51812); assay: Inhibition of Ribosomal S6 kinase 3
# Sequence of Ribosomal protein S6 kinase alpha-3 (P51812 whole entry): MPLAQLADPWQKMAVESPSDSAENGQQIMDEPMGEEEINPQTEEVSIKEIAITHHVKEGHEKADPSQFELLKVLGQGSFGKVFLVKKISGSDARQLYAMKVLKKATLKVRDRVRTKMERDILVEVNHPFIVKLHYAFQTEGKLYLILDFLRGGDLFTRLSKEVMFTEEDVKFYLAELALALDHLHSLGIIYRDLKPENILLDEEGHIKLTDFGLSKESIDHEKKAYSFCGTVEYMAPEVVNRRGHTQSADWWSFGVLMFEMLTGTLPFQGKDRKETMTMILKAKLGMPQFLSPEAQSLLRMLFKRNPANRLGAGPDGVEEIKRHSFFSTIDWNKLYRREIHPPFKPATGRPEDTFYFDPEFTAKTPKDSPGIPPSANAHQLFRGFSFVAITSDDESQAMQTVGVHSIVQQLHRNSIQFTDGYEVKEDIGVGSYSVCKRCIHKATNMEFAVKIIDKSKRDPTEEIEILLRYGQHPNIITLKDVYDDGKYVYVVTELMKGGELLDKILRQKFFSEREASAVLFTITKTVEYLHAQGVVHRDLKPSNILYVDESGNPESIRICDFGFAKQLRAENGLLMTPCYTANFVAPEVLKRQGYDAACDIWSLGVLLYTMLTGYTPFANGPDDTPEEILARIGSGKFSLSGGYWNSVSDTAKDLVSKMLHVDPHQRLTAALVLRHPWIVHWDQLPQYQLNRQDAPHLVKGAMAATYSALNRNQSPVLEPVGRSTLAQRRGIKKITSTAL
# [11] = biological target: Platelet-derived growth factor receptor beta (Homo sapiens) (UniProt P09619); assay: Inhibition of PDGFRbeta
# Sequence of Platelet-derived growth factor receptor beta (Homo sapiens) (P09619 whole entry): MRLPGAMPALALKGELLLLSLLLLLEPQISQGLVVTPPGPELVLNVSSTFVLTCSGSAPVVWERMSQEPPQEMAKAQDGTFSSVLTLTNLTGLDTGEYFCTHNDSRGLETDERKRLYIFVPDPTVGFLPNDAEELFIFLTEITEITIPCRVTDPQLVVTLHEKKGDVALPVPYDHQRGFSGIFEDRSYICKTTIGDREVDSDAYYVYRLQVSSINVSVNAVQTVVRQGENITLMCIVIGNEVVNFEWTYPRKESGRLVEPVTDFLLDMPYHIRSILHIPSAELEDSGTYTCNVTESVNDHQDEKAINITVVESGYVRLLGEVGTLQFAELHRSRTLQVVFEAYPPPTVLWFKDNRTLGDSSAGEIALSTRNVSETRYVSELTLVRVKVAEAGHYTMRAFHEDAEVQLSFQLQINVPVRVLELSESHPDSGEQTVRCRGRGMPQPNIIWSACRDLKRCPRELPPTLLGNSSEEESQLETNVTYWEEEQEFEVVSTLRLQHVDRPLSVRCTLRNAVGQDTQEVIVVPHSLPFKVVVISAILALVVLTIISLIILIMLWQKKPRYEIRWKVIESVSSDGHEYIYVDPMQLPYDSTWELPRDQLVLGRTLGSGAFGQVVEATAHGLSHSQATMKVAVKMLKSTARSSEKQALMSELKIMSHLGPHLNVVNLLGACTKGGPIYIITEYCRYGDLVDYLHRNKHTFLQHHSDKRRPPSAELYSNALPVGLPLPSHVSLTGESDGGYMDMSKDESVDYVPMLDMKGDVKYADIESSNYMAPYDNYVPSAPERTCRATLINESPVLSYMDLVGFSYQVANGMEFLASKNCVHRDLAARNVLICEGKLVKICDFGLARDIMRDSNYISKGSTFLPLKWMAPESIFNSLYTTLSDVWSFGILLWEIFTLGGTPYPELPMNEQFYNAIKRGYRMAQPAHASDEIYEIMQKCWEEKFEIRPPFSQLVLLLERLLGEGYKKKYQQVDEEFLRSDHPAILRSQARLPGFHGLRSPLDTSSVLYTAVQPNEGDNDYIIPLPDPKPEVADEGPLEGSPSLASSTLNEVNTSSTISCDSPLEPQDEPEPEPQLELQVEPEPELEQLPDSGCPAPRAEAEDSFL
# [12] = biological target: Dual specificity mitogen-activated protein kinase kinase 1 (Homo sapiens) (UniProt Q02750); assay: Inhibition of mitogen activated protein kinase kinase 1
# [13] = biological target: Ribosomal protein S6 kinase alpha-1 (Rattus norvegicus) (UniProt Q63531); assay: Inhibition of Ribosomal S6 kinase 1
# [14] = biological target: Mitogen-activated protein kinase 3 (Homo sapiens) (UniProt P27361); assay: Inhibition of compound against mitogen-activated protein kinase 1
# Sequence of Mitogen-activated protein kinase 3 (Homo sapiens) (P27361 whole entry): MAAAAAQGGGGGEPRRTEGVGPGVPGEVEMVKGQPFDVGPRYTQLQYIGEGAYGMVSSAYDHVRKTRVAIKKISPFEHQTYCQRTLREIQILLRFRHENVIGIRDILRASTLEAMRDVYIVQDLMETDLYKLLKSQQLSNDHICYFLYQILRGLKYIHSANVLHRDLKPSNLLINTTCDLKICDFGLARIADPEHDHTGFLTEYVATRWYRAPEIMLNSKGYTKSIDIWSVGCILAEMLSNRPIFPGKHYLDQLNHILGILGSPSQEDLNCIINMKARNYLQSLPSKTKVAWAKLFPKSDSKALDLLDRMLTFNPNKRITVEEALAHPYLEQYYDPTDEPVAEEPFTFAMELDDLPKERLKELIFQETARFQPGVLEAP
# [15] = biological target: Insulin-like growth factor 1 receptor (Homo sapiens) (UniProt P08069); assay: Inhibition of insulin-like growth factor I receptor
# Sequence of Insulin-like growth factor 1 receptor (Homo sapiens) (P08069 31-736 limits assumed): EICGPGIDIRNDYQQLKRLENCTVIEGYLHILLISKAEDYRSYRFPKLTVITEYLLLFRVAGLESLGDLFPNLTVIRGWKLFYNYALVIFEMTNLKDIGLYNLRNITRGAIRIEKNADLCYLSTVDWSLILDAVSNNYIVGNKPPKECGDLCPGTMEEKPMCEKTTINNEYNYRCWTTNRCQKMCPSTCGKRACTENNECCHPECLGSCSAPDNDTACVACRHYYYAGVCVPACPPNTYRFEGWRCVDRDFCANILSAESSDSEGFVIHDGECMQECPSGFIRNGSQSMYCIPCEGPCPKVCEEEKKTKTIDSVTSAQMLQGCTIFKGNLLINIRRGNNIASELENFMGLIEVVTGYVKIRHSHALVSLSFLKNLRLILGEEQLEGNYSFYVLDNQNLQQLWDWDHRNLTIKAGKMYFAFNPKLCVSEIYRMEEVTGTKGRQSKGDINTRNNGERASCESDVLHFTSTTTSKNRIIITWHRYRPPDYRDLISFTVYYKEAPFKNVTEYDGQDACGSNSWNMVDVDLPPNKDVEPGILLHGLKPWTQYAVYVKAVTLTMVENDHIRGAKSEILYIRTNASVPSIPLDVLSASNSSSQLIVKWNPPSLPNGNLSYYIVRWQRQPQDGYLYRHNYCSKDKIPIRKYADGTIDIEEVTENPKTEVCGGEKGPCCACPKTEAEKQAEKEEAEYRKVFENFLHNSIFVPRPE
# Sequence of Insulin-like growth factor 1 receptor (Homo sapiens) (P08069 741-1367 limits assumed): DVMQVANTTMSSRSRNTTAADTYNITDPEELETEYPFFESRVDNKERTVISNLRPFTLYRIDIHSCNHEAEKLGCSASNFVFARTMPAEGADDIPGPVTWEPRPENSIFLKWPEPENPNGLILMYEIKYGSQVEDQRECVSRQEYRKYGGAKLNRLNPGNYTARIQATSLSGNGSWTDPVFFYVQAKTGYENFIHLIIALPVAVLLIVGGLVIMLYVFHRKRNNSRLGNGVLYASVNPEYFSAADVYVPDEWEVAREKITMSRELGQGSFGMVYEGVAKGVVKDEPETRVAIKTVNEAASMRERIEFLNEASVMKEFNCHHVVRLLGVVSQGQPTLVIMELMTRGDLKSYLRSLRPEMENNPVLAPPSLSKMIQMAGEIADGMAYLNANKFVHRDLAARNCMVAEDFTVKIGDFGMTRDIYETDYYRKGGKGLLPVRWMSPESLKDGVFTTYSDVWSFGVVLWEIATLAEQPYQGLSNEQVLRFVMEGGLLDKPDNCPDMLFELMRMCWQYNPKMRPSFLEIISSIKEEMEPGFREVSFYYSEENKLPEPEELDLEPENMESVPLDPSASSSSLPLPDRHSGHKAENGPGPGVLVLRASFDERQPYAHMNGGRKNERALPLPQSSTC
SMILES,Activity [1] [%],Activity [2] [%],Activity [3] [%],Activity [4] [%],Activity [5] [%],Activity [6] [%],Activity [7] [%],Activity [8] [%],Activity [9] [%],Activity [10] [%],Activity [11] [%],Activity [12] [%],Activity [13] [%],Activity [14] [%],Activity [15] [%]
COc1ccccc1C1=C(c2cn(CCCNC(=O)OC(C)(C)C)c3ncccc23)C(=O)NC1=O,91,122,68,93,95,63,63,101,91,24,93,100,38,81,86
COCCCn1cc(C2=C(c3ccccc3O)C(=O)NC2=O)c2cccnc21,82,120,76,94,83,75,94,71,81,33,96,94,48,78,80
O=C1NC(=O)C(c2cn(CCCO)c3ncccc23)=C1c1ncc(C(F)(F)F)cc1Cl,82,86,71,78,86,67,89,68,83,60,77,74,66,66,78
